Laboratory results reported in BindingDB's records for doi:10.1021/jm50001a017 (1985).

Key:
[1] = biological target: Beta-2 adrenergic receptor (Mus musculus) (UniProt P18762); assay: KD constant value was evaluated for the displacement of ICYP (iodocyanopindolol) binding
[2] = biological target: Beta-2 adrenergic receptor (Mus musculus) (UniProt P18762); assay: KD constant value was evaluated for the displacement of ICYP (iodocyanopindolol) binding in […] lymphoma cell

Sequence of Beta-2 adrenergic receptor (Mus musculus) (P18762 whole entry, looked up): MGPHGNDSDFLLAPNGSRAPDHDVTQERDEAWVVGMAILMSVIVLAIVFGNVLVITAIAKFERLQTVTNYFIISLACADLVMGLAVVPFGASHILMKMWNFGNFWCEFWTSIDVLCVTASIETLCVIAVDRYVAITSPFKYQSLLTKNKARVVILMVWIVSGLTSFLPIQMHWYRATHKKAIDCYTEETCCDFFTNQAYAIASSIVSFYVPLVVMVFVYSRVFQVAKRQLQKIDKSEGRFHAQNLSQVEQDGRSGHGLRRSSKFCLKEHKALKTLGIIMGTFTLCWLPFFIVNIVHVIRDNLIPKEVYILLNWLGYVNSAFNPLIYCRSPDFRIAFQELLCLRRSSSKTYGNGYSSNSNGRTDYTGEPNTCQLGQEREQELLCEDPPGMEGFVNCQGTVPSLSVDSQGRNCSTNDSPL

Kd [1] [µM]	Kd [2] [µM]	SMILES
10	–	CC(CCCCN)NCC(O)c1ccc(O)c(O)c1 (stereo not drawn)
–	0.47	Cc1ccc(NC(=O)NCCCCC(C)NCC(O)c2ccc(O)c(O)c2)cc1 (stereo not drawn)
0.32	–	Cc1ccc(C(=O)NCCCCC(C)NCC(O)c2ccc(O)c(O)c2)cc1 (stereo not drawn)
